From patent publication US20080319375A1, “Materials, Methods, and Systems for Cavitation-mediated Ultrasonic Drug Delivery in vivo” (Biovaluation & Analysis, Inc., priority 2007, published 2008)

Assay: Micropipette aspiration of polymersome membranes
Format: physicochemical
Description: Thermal undulations of the quasi-spherical polymersome membranes provide an immediate indication of membrane softness. […] The micromanipulations are done with micropipette systems, as described above, and analogous to those described by Longo et al. (1997) and by Discher et al. (1994).
Analogous to a lipid bilayer, at low but increasing aspiration pressures, the thermally undulating polymersome membrane is progressively smoothed, increasing the projected area logarithmically with tension, t. From the slope of this increase (i.e., in tension units of mN/m) versus the fractional change, α, in vesicle area, the bending modulus, Kb, is calculated (see, e.g., Evans et al., 1990) with the following equation:
Kb≅kBT ln(t)/(8απ)+constant Equation 3 […]
Despite the comparative toughness of the polymersome membrane, a core “cavitation pressure,” Pc, may be readily estimated as pc=tc/d (5) yielding a value of pc=−25 atm. […] Bulk liquids such as water and light organics, are commonly reported to have measured tensile strengths of such a magnitude as may be generically estimated from a ratio of nominal interfacial tensions to molecular dimensions (i.e., ˜γ/d).

- area expansion modulus, Ka: ~180 mN/m
SMILES: CCCCCCCC/C=C\CCCCCCCC(=O)O[C@H](COC(=O)CCCCCCCCCCCCCCCCC)COP(=O)([O-])OCC[N+](C)(C)C [SOPC, 1-stearoyl-2-oleoyl phosphatidylcholine]
